| melting point | SMILES |
| --- | --- |
| 124 to 127 °C | CCCCCN(C[C@H]1CCC[C@H](CN(CCCCC)C(=O)Nc2ccc(N(C)C)cc2)C1)C(=O)Nc1ccc(N(C)C)cc1 (relative stereo) |
| 105 to 106 °C | Cc1cccc(NC(=N)Nc2cccc(C)c2)c1 |
| 158 to 160 °C | O=C(O)CCC(=O)c1ccc([N+](=O)[O-])c(O)c1 |
| 105 to 107 °C | Cc1ccc(NC(=N)c2ccccn2)cc1C |
| 202 to 203 °C | COCc1cccc(C=O)c1NC(=O)CC1c2ccccc2Oc2ccccc21 |
| 178 to 179 °C | Cc1cccc(-c2nc(N)sc2-c2ccnc(NCc3ccccc3)c2)c1 |
| 106 to 108 °C | CCCCCCCCc1ccc(N(c2ccc(CCCCCCCC)cc2)C2(c3c(C)n(CC)c4ccccc34)OC(=O)c3ccccc32)cc1 (centres undefined) |
| 161 to 163 °C | CS(=O)(=O)c1ccc(-c2cnn(-c3ccc(F)c(F)c3)c(=O)c2Cc2cccc(F)c2)cc1 |
| 119 °C | CC(=O)CCCN1CCC(NC(=O)c2cc(Cl)c(N)c3c2OC(C)(C)C3)CC1 |
| 100 °C | Cc1ccc(CN(C(=O)Nc2c(C(C)C)cccc2C(C)C)c2ccc(C(C)C)cc2)c(C)c1 |
| 142 °C | C#CCOc1ccc(C(=O)OC)c(O)c1 |
| 178 to 180 °C | OC(=S)c1ccccc1-c1ccccc1 |
| 214 to 215 °C | Cc1ccc2oc(=O)c(NC(=O)Nc3ccc(F)cc3F)c(-c3ccccc3Cl)c2c1 |
| 73 to 74.5 °C | CC(=O)OCCn1c2ccccc2c2ccccc21 |
| 149 °C | O=Cc1ccccc1-c1noc2ccccc12 |
| 223 to 224 °C | CCc1cn(C2OC(CNC(=O)C(C)Oc3cc(OC)c(Br)cc3Br)C(O)C2F)c(=O)[nH]c1=O (centres undefined) |
| 57 to 59 °C | Cc1cc(C(C)(C)CCl)c(C)nn1 |
| 179 to 180 °C | c1cc2[nH]ncc2cc1NC1CCN(CC2CCCCC2)CC1 |
| 188 to 191 °C | COc1cc(Nc2ncc(C#N)c(-c3ccc(CO)cc3)n2)cc(OC)c1OC |
| 129 to 130 °C | CCOP(=O)(/C=C/c1cn(-c2ccccc2)nc1OCc1ccc(OCc2nc(-c3ccc(C(=O)OC)cc3)oc2C)c(OC)c1)OCC |
| 54 °C | CCOCc1cc2c([N+](=O)[O-])cccc2cn1 |
| 82 to 86 °C | COc1cc(C(=O)c2ccccc2N)ccn1 |
| 226 to 227 °C | CN1C(=O)Nc2ccccc2C12NC(=O)N(COCc1ccccc1)C2=O (centres undefined) |
| 154 to 155 °C | O=S(=O)(Nc1ccccc1OCc1ccc2ccccc2n1)c1cccc(C(F)(F)F)c1 |
| 294 °C | Cn1ncc(C(=O)O)c1C(=O)Nc1ccc2nc(N3CCOCC3)nn2c1 |

| melting point | SMILES |
| --- | --- |
| 126 to 128 °C | CN1CCC(NC(=O)c2cccc3oc(-c4ccccc4)nc23)CC1 |
| 87 to 89 °C | Cc1ncoc1C(C)(O)c1ccsc1 (centres undefined) |
| 50 to 52 °C | [N-]=[N+]=NCC1Cc2cc(Cl)cc(-c3ccsc3)c2O1 (centres undefined) |
| 105 to 108 °C | CCOC(=O)c1ccc(CNC(=O)CI)cc1O |
| 168 °C | COc1ccccc1CNC(=O)c1ccc2nc(N[C@@H]3CCc4ccccc43)ccc2c1 |
| 93 to 95 °C | CCc1cc(C(C)=O)nn1-c1ccc([N+](=O)[O-])cc1 |
| 126 °C | O=C(Nc1ccc2[nH]ncc2c1)O[C@@H](c1cccc(I)c1)[C@@H]1CCCCN1 |
| 245 to 249 °C | O=C(NC(=O)c1c(Cl)cccc1Cl)Nc1cnc(-c2ccc(Cl)cc2)cn1 |
| 151 to 152 °C | O=C1c2ccccc2CSc2ccc(Br)cc21 |
| 144 to 146 °C | CCN(CC)CCNC(=O)c1cc(Cl)c(N)cc1OCCO |
| 144 to 145 °C | CC(=O)c1ccc(-c2cc(C(C)(C)C)c(O)c(C(C)(C)C)c2)cc1 |
| 66 to 68 °C | O=C1N(Cc2cccc(OCc3ccccc3)c2)c2ccccc2C12COc1cc3c(cc12)CCO3 (centres undefined) |
| 138 °C | CCCCCCC1C(=O)NC(C(=O)SCc2ccccc2)(C(O)C2C=CCCC2)C1(C)O (centres undefined) |
| 211 to 213 °C | CSc1ncc(Cc2cccnc2)c(=S)[nH]1 |
| 38 to 40 °C | COC(=O)c1cnc(C)n1C |
| 153 to 155 °C | CCOC(=O)c1cccc(NC(=O)c2ccc(OC)c(NCc3cccs3)c2)c1 |
| 153 to 160 °C | OC1(C#Cc2cccc(Cl)c2)CCNC1 (centres undefined) |
| 158 to 159 °C | CC(C)(C)NC(=O)[C@H](Cc1ccc([N+](=O)[O-])cc1)NC(=O)OC(C)(C)C |
| 174 to 175 °C | CCCCNc1cc(CNCc2cccc(O)c2)cc(S(N)(=O)=O)c1Oc1ccccc1 |
| 56 °C | Cc1cc(C#Cc2ccccc2)nc(Oc2cc(C(F)(F)F)nn2C)c1 |
| 188 to 189 °C | NC(=O)Cc1ccc2c(c1)CCc1ccccc1S2 |
| 152 to 154 °C | CC(=O)NCCCn1nnnc1S |
| 130 to 132 °C | CCCCC(=N)NC(=O)Nc1ccccc1[N+](=O)[O-] |
| 134 °C | COC(=O)c1cc2c3ccccc3n(C)c2s1 |
| 196 to 199 °C | Cc1cc(N2CCC(=O)CC2)nn2cnnc12 |

| melting point | SMILES |
| --- | --- |
| 92 to 94 °C | O=C(c1ccccc1)c1ccc(OCCO)cc1O |
| > 310 °C | O=C1NC(=O)c2c1cc1ccc3c(c1c2-c1ccc(F)cc1)OCC3 |
| 192 to 193 °C | O=c1cc(NCc2ccccc2)c(-c2nc[nH]n2)nn1-c1ccccc1 |
| 82 to 83 °C | CCOC(=O)CNC(=O)c1cccs1 |
| 72 to 74 °C | CCOC(=O)CC(=O)c1cccc(-n2ccnn2)c1 |
| 150 to 155 °C | O=C1CC(c2ccc(OCc3ccccc3)cc2)CN1O (centres undefined) |
| 173 °C | Cc1c(Sc2ccc(Cl)cc2)c2c(N3CCN(C(=O)OC(C)(C)C)CC3)cccc2n1CC(=O)O |
| 152 to 153 °C | Fc1c(F)c(C(F)(F)F)c(F)c(F)c1Nc1nc(Cl)nc(Cl)c1Cl |
| 122 to 123 °C | O=[N+]([O-])C=C(NCCSCc1ncccc1Br)NCCSCc1ncccc1Br |
| 125 to 127 °C | O=C(CN1CCOCC1)Nc1ccn(-c2ccc(Cl)c(Cl)c2)n1 |
| 201 to 202 °C | Cc1c(NC(=O)CC(C)(C)C)c2c(c3c1C(c1ccc(C(C)C)cc1)CO3)CCC2 (centres undefined) |
| 65 to 66 °C | Cc1ccc2c(c1)C(C)(C)[C@@H](C)[C@H](C)C2(C)C (relative stereo) |
| 118 to 121 °C | Cn1nc2c(-c3ccc(Cl)cc3Cl)cccc2c1-n1cnnc1 |
| 143 to 144 °C | COc1ccnc(CCc2nc3c(C)ccnc3[nH]2)c1 |
| 72 to 74 °C | Fc1cc(F)c(-c2c(Cl)nc(-n3ccnc3)nc2Cl)c(F)c1 |
| 183 to 185 °C | CCCn1ncc(C(N)=O)c1N |
| 166 to 167 °C | COc1ccc(C(=O)N2CC[C@H](O)C2=O)cc1OCc1ccccc1 |
| 88 to 90 °C | CCOC(=O)c1csc(C#Cc2ccc(OC)c(C34CC5CC(CC(C5)C3)C4)c2)c1 |
| 227 to 228 °C | CNC(=O)c1ccccc1Nc1nc(Nc2cc3c(cc2OC)N(C)C(=O)OCC3)ncc1Br |
| 105 to 108 °C | O=C(O)c1ccc(COc2ccc3c(c2)CCC(CCN2CCCCC2)C3)cc1 (centres undefined) |
| 258 to 259 °C | Cc1cc(-c2c(F)cc3c(=O)c(Cc4ccc(O)cc4)cn(C4CC4)c3c2F)cc(C)n1 |
| > 300 °C | Cc1[nH]n(Cc2cccc(C(N)=O)c2)c2nc(-c3ccncc3)nc(=O)c1-2 |
| 267 to 269 °C | COc1ccc(-c2[nH]nc3c2C(=O)c2c(NC(N)=O)cccc2-3)cc1 |
| 219 to 221 °C | CC(=O)Nc1ccc(C(=O)O)cc1OC(C)=O |
| 129 to 131 °C | O=C(NS(=O)(=O)NCCc1cccs1)OCc1ccccc1 |

| melting point | SMILES |
| --- | --- |
| 184 to 193 °C | O=C1CC(c2ccc3oc4c(c3c2)CCCC4)CC(=O)N1 |
| 58 to 63 °C | COc1ccc(NC(=O)OCC2(COC(=O)Nc3ccc(OC)cc3)CSc3ccccc3C2=O)cc1 |
| 169 to 170 °C | N#Cc1ccc(N(Cc2ccc(O)cc2)n2cncn2)cc1-c1ccccc1 |
| 82 to 83 °C | N#CCC(=O)Cc1cccc(C(F)(F)F)c1 |
| 159 to 161 °C | CCCC(=O)c1cnc2c(OC)cccc2c1Nc1ccccc1CO |
| 146 to 148 °C | COc1ccc2c(c1)C(=O)C(Br)=C(Br)C2=O |
| 80 to 81 °C | COC(=O)COc1cccc2c(CCO)c(CCOC(C)=O)oc12 |
| 207 to 208 °C | COc1ccc(-c2ccccc2)c2sc(N)nc12 |
| 84 to 86 °C | COC=C(C#N)CNC=O |
| 199 to 200 °C | CN(C)C/C=C/C(=O)N1CCOc2cc3ncc(C#N)c(Nc4ccc(F)c(Cl)c4)c3cc21 |
| 128 to 130 °C | CSc1sc(-c2ccn(C)n2)c2c1-c1oncc1C(C)(C)C2 |
| 175 to 176 °C | CCC(=O)Nc1nc(C)c(C(=O)NCc2ccccc2)s1 |
| 343 °C | COc1cc2c(cc1[N+](=O)[O-])[nH]c(=O)c(=O)n2C |
| 65 to 67 °C | O=C(CCl)CCc1ccc(Cl)cc1 |
| 235 °C | CCCc1c2c(cc3c(=O)cc(C(=O)O)oc13)CCCC2 |
| 115 °C | CCC(c1ccc(Nc2ccccc2)c2ccccc12)c1ccc(Nc2ccccc2)c2ccccc12 |
| 62 to 64 °C | CCCc1c(OCCCCCC(=O)O)ccc(C(C)=O)c1O |
| 218 °C | Cc1cc(CC(O)CN2C(=O)CCC2=O)cc(C(C)(C)C)c1O (centres undefined) |
| 288 to 290 °C | O=C1NN(c2ccc(Cl)cc2)C(=O)C1=CNc1ccccc1 |
| 67 to 70 °C | Cn1nc(C(F)(F)F)c(CS(=O)(=O)C2=NOC(C)(C)C2)c1Oc1ccccc1Cl |
| 162 to 163 °C | CCCc1cc(-c2noc3cc(O)ccc23)c(CCC)cc1O |
| 300 to 320 °C | Cc1c(-c2ccc(Cl)c(C(=O)N(C)C)c2)sc2nc(N)[nH]c(=O)c12 |
| 174 to 175 °C | COc1ccc(-c2[nH]nc3c2C(=O)c2c(NC(C)=O)cccc2-3)cc1 |
| 32 to 33 °C | CCOC(=O)CCCCOc1cccc(O)c1C=O |
| > 300 °C | Cc1ccnc2c1nc(CO)n2C |

| SMILES | melting point |
| --- | --- |
| CC(=O)OC1CCC2(C)C(=CC(=O)C3C4CCC(=O)C4(C)CCC32)C1=O (centres undefined) | 193 to 195 °C |
| COc1cccc(N(C)C(=O)Oc2ccc(Cl)c(C(C)(C)C)c2)n1 | 54 to 56 °C |
| O=C(Nc1ccc(C#CCCN2CC=C(c3ccccc3)CC2)nc1)c1cccs1 | 187 to 188 °C |
| CCCCCC(=O)C=[PH2]c1ccccc1 | 73 to 74 °C |
